Experimental data from US11221329B2, “Treatment of neurological and neurodevelopmental diseases and disorders associated with aberrant ion channel expression and activity” (LIEBER INSTITUTE FOR BRAIN DEVELOPMENT, priority 2015, dated 2022).
Entries after “also recorded” stand apart in the source; their conditions may differ.

Legend:
TCF4 protein = experiment: Western blot of endogenous TCF4 protein after shRNA transfection of rat neuroblastoma cells; type: cell-based; settings: transfected rat neuroblastoma cells; vs control shRNA; N=4
Description: Rat neuroblastoma cells (B104) were cultured in Dulbecco's modified Eagle medium (DMEM) (Thermo Fisher) supplemented with 10% FBS, 100 U-100 μg/ml Penicillin-Streptomycin, 2 mM L-Glutamine, and 100 μm non-essential amino acids and maintained at 37° C. with 5% CO2. At a confluency of […], cells were co-transfected in 6 well plates using Lipofectamine 3000 (Thermo Fisher) with 0.5 μg PBR-GFP, a puromycin selection plasmid, and 2 μg shRNA or 2 μg CRISPR-Cas9 plasmids according to the manufacturer's protocol. Cells were selected with 500 ng/mL puromycin for 24 hours and were allowed to recover in growth medium lacking penicillin-streptomycin for 48 hours.
Rat neuroblastoma cells were washed in cold PBS, scraped from plates and pelleted by centrifugation at 4000 rpm for 5 minutes at 4° C. […]
30 μg of total protein were used from each sample; protein was subjected to gel electrophoresis using a 4-12% gradient Novex Bis-Tris Bolt SDS-PAGE gel. […] Bound antibody was detected using IRdye donkey anti-goat 680 (1:10,000, Li-Cor) and IRdye donkey anti-rabbit 800 (1:10,000, Li-Cor). Antibody detection and quantification were carried out using the LI-COR Odyssey infrared system and software.

TCF4 transcript = experiment: qRT-PCR of TCF4 transcript after shRNA transfection of rat neuroblastoma cells; type: cell-based; settings: transfected rat neuroblastoma cells; vs control shRNA; N=4
Description: To measure Tcf4 transcript expression across the lifespan in the rat, three cortical samples per age group, as well as cortical samples extracted from both genotypes of postnatal day 21 (p21) TCF4 mice to measure SCN10a and KCNQ1 expression, were separately flash frozen and homogenized in Trizol (Life Technologies). Aqueous phase was mixed with a 1:1 volume of 70% ethanol prior to purification using RNeasy mini columns treated with DNAse according to manufacturer's protocol (Qiagen). RNA samples were then reverse-transcribed to cDNA using the Quantscript Reverse Transcriptase kit (Qiagen). Amplification of cDNA was performed with iTaq SYBR Green Supermix (Bio-Rad) and TCF4, KCNQ1, and SCN10a primers were designed using with Primer 3 software (http://bioinfo.ut.ee/primer3-0.4.0/). End-point PCR followed by product sequencing, in addition to cDNA dilution series and melt curve analysis were used to verify primer design efficiency and specificity. Real time PCR was performed on the 7900HT Fast Real-Time PCR system (Applied Biosystems) and melt curve analysis was done for absolute quantification of primer efficiency. Data were expressed as fold change of gene of interest normalized to GAPDH expression using 2^delta delta Ct. […]

[1] = tested on: AHP currents in EGFP+ cells expressing shCon or shTCF4; experiment: Whole-cell voltage-clamp recordings of AHP currents with progressive pharmacological blockade; type: cell-based, rat
Description: (§1) For all experiments, artificial cerebrospinal fluid (ACSF) was oxygenated (95% O2 and 5% CO2) and contained in (in mM): 125 NaCl, 25 NaHCO3, 1.25 NaH2PO4, 3 KCl, 25 dextrose, 1 MgCl2, and 2 CaCl2, pH 7.3. Patch pipettes were fabricated from borosilicate glass (N51A, King Precision Glass, Inc.) to a resistance of 2-5 MΩ. For current- and voltage-clamp measurements, pipettes were filled with (in mM): 125 potassium gluconate, 10 HEPES, 4 Mg-ATP, 0.3 Na-GTP, 0.1 EGTA, 10 phosophocreatine, 0.05% biocytin, adjusted to pH 7.3 with KOH. For all experiments GABAa receptors were blocked with SR-95531 (Gabazine, 5 μM, Ascent Scientific). For AHP current experiments, synaptic currents were blocked with DL-2-amino-5-phosphopentanoic acid (D,L-AP5, 100 μM, Ascent Scientific), 2,3, dioxo-6-nitro-1,2,3,4, tetrahydrobenzo-quinoxaline-7-sulfonamide (NBQX, 10 μM) and SR-95531 (Gabazine, 5 μM, Ascent Scientific). Ca2+-activated currents were blocked with Tetraethylammonium chloride (TEA, 1 mM, Abcam), apamin (100 nM, Abcam), and carbachol (10 μM, Abcam). Current signals were recorded with either a Multiclamp 700A (Molecular Devices) or with an Axopatch 200B amplifier (Molecular Devices) and were filtered at 2 kHz using a built-in Bessel filter and digitized at 10 kHz.

shTCF4 cells = experiment: Whole-cell current-clamp recordings (AP spiking, mAHP/sAHP) in shTCF4 (TCF4 knockdown) mPFC layer 2/3 pyramidal neurons, acute brain slices; type: cell-based, rat; settings: N=8
Description: (§2) Pregnant Wistar rats were obtained from Charles River Laboratories, Inc., maintained by SoBran on a 12-hour light cycle and fed ad libitum. In utero electroporation was performed as previously described (Chen et al., 2014; Maher and Loturco, 2012a). Electroporation was performed on embryonic day 16 (E16) and gestation age was confirmed during surgery. All plasmids were used at a final concentration of 1.5 μg/μl, and the mPFC was targeted for transfection. Pregnant dams were returned to the same housing conditions after recovery from surgery, and after litters were born, transfected rats were used for experiments at days P18-24.
(§3) Acute brain slices were obtained from rats and mice as described previously (Maher and Loturco, 2012b). Briefly, P18-24 male and female animals were deeply anesthetized with isoflurane and transcardially perfused with ice-cold oxygenated (95% O2 and 5% CO2) dissecting buffer containing (in mM): 83 NaCl, 2.5 KCl, 1 NaH2PO4, 26.2 NaHCO3, 22 glucose, 72 sucrose, 0.5 CaCl2, and 3.3 MgCl2. Animals were humanly sacrificed and decapitated and the brains were rapidly removed and immersed in ice-cold oxygenated dissection buffer. Coronal slices (300 μm) were cut using a vibratome (Microm HM650V), incubated in dissection buffer for 30-45 minutes at 34° C., and then stored at room temperature. Slices were visualized using IR differential interference microscopy (DIC) (Olympus BX51WI) and a CCD camera (QICAM, QImaging). Individual layer 2/3 pyramidal cells expressing EGFP in rat brain slices were visualized with epifluorescent illumination and a 43× Olympus LUMPlanFLN (0.8 numerical aperture) objective.
as §1, with “kHz. Voltage signals were filtered at 2 kHz and digitized at 10 kHz. Data were acquired using Axograph on a Dell PC. Data acquisition was terminated when series resistance was >15 MΩ. For voltage clamp recordings, pyramidal cells were held at −60 mV. No holding current was used for current-clamp recordings.” for “kHz.”
(§4) Axograph was used on a Macintosh computer for analysis. To measure spike frequency, EGFP-positive layer 2/3 neurons of the mPFC were injected with a 600 ms depolarizing current pulses ranging from 50 to 500 pA at 50 pA increments with an 10 s inter-trial interval. Each current pulse was measured in triplicate, and the number of resulting APs was averaged. For analysis of fAHP amplitude, the second and third current evoked spikes within the 600 ms pulse were measured. The fAHP potential was measured by subtracting the voltage at the peak of the fAHP from the threshold potential for spike initiation (slope of AP exceeds 50 mV/ms). The mAHP potential was measured at the peak of the AHP that followed the 600 ms current pulse. […]

shCon cells = experiment: Whole-cell current-clamp recordings (AP spiking, mAHP/sAHP) in shCon (control shRNA) mPFC layer 2/3 pyramidal neurons, acute brain slices; type: cell-based, rat
Description: as §2, §3
as §1, with “kHz. Voltage signals were filtered at 2 kHz and digitized at 10 kHz. Data were acquired using Axograph on a Dell PC. Data acquisition was terminated when series resistance was >15 MΩ. For voltage clamp recordings, pyramidal cells were held at −60 mV. No holding current was used for current-clamp recordings.” for “kHz.”
as §4

KCNQ1 = KCNQ1 (Homo sapiens, UniProt P51787); settings: KCNQ1 antagonist; Towart et al., 2009; cited from earlier work

Q: What does the source list for “shTCF4: shRNA construct targeting the open reading frame of rat TCF4, AGAAACTAGACGACGACAA (SEQ ID NO:2) (the letters are possibly those of the target site; listed as Homo sapiens)”?
A: endogenous TCF4 protein (Western blot) (TCF4 protein): 1.9±2.0 % of control; TCF4 transcript (qRT-PCR) (TCF4 transcript): 0.55±0.15 fold change from control

Q: With `CC[N+](CC)(CC)CC.[Cl-]` [TEA, Tetraethylammonium chloride] as the compound, how does the “effect on the fAHP current” value ([1]; TEA 1 mM bath application, shCon and shTCF4 cells) read?
A: blockade of the fAHP current

Q: What does the source list for `C[N+](C)(C)CCOC(N)=O` [carbachol]?
A: effect on action potential frequency (shTCF4 cells; carbachol (10 μM) bath application, shTCF4 neurons, 600 ms pulses 50 to 500 pA, p=0.0075): effective at rescuing action potential frequency; peak amplitude of the mAHP after application (shTCF4 cells; carbachol, shTCF4 cells, before −6.78±0.70, p=0.0051): −4.23±0.60 mV; effect on spiking (shCon cells; carbachol bath application, effective for current injections 200-500 pA, N=12, p=0.0038): increased spiking; amplitude of the sAHP after application (shCon cells; carbachol, before −3.13±0.45, N=19, p=0.0004): −1.10±0.32 mV; peak amplitude of the mAHP after application (shCon cells; carbachol, before −4.21±0.52, N=19, p=0.0008): −2.32±0.31 mV; effect on the sAHP (voltage clamp) ([1]; carbachol, shTCF4 cells, average voltage-clamp traces): block the sAHP

Q: Which results are given for “shTCF4_2: shRNA construct targeting the 3′ UTR of rat TCF4, GTTTCAGCATTCCCAATTA (SEQ ID NO:1) (the letters are possibly those of the target site)”?
A: endogenous TCF4 protein (Western blot) (TCF4 protein): 36.4±4.3 % of control; TCF4 transcript (qRT-PCR) (TCF4 transcript): 0.47±0.11 fold change from control

Q: With `CC(C)(Oc1ccc(Cl)cc1)C(=O)NC1C2CC3CC1CC(NS(C)(=O)=O)(C3)C2` (stereo not drawn) [JNJ303, 2-(4-Chlorophenoxy)-2-methyl-N-[5-[(methylsulfonyl)amino]tricyclo[3.3.1.13,7]dec-2-yl]-propanamide] as the compound, how does the “effect on the frequency of APs generated in response to current injections” value (shTCF4 cells; JNJ303 1 μM, shTCF4 cells, significant for current pulses 250-500 pA, p=0.0084) read?
A: effective at increasing the spiking frequency; also recorded: significantly increased firing frequency

Q: And the “amplitude of the sAHP after application” value (shTCF4 cells; JNJ303, shTCF4 cells, before −2.31±0.46 mV, p=0.041)?
A: −1.71±0.33 mV

Q: And the “amplitude of the mAHP after application” value (shTCF4 cells; JNJ303, shTCF4 cells, before −3.52±0.58 mV, p<0.044)?
A: −2.77±0.36 mV

Q: And the “effect on the frequency of APs (spiking)” value (shCon cells; JNJ303, N=8, p=0.11)?
A: neither UCL2077 (p=0.35) nor JNJ303 (p=0.11) had an effect on spiking

Q: What about the “amplitude of the sAHP after application” value (shCon cells; JNJ303, before −4.67±0.48 mV, N=9, p=0.20) of the same compound?
A: −4.22±0.57

Q: What about the “amplitude of the mAHP after application” value (shCon cells; JNJ303, before −5.93±0.58 mV, N=9, not significant) of the same compound?
A: −5.61±0.74 mV

Q: What about the IC50 (KCNQ1) of the same compound?
A: 64 nM
